Laboratory results: publication PMC7427733, “Novel xylose transporter Cs4130 expands the sugar uptake repertoire in recombinant Saccharomyces cerevisiae strains at high xylose concentrations” (Biotechnology for Biofuels, 2020)

Experiments:
Gxf1 [1] = biological target: T1, Gxf1 (Sungouiella intermedia, UniProt Q2MDH1); assay: growth complementation (spot assay) and sugar consumption (HPLC) in transporter-null yeast; assay type: cell-based; settings: S. cerevisiae EBY_Xyl1, 30 °C, xylose 5-50 g/L; uptake inferred
T1 sequence (Q2MDH1 1-547): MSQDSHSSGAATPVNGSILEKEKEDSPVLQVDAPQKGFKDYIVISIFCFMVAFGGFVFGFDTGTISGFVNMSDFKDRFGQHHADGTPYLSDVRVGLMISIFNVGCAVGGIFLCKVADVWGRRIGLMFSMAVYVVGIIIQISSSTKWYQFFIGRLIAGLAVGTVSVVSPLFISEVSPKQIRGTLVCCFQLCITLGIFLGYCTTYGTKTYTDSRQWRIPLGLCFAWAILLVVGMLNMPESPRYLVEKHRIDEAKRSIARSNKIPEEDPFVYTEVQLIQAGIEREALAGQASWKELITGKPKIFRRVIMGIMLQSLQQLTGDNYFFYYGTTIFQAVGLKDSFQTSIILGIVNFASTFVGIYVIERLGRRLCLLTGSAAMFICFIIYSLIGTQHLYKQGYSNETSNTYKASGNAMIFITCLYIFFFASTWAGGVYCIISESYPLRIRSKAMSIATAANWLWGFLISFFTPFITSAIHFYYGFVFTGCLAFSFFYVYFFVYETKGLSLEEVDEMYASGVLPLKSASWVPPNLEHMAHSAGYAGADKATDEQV

Gxf1 [2] = biological target: T1, Gxf1; assay: as above; assay type: cell-based; settings: S. cerevisiae EBY_Xyl1, 30 °C, 20 g/L glucose spot assay; 10 g/L glucose with 10 g/L xylose in fermentation; uptake inferred

## OC1OC[C@@H](O)[C@H](O)[C@H]1O (some centres unmarked) [xylose]
Gxf1 [1]
  growth complementation (spot assay) and sugar consumption (HPLC) in transporter-: The facilitator Gxf1 restored growth in all xylose concentrations evaluated

## OC[C@H]1OC(O)[C@H](O)[C@@H](O)[C@@H]1O (some centres unmarked) [glucose]
Gxf1 [2]
  growth complementation (spot assay) and sugar consumption (HPLC) in transporter-: Cs3894 and Gxf1 were able to support better and similar patterns of growth on glucose
